Where “and” joins values, the source holds several entries; their conditions need not be identical. Equal values may be shown once.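 Assay format: 96-well plates, 48-hour exposure. Here, GI50 denotes the concentration required for 50% inhibition of growth. Definition used: TGI = concentration required for complete inhibition of growth.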
system: DLD-1 colon; assay: growth of human tumour cells (NCI), 48 h

| SMILES | TGI | GI50 |
| --- | --- | --- |
| Cc1nc(N)sc1C(=O)/C=C\c1ccc2c(c1)OCO2 | > 100 µM |  |
| COc1cc(C(C)O)c[n+](CCc2c[nH]c3ccccc23)c1 (configuration not stated) | > 100 µM |  |
| CC1(C)SCc2nc3ncccc3n21 | > 100 µM |  |
| Cn1c(=O)c(C(c2ccc([N+](=O)[O-])cc2)c2c(O)c3ccccc3n(C)c2=O)cc2ccccc21 (configuration not stated) | > 100 µM |  |
| Cc1cn(C2CC(O)C(CO)O2)c(=O)n2nnnc12 (configuration not stated) | > 100 µM |  |
| COc1ccc(C(=O)C(C(=O)CCC(=O)Nc2cccc(Cl)c2)c2ccc(OC)cc2)cc1 (configuration not stated) | > 100 µM |  |
| CCOC(=O)C1=C(C)N(NC(=O)Nc2ccccc2)C(=O)C1=P(c1ccccc1)(c1ccccc1)c1ccccc1 | > 100 µM |  |
| COc1cc(C=C2C(=O)NC(=O)NC2=O)cc(OC)c1OC | > 100 µM |  |
| Nn1c(=O)n(Cc2ccccc2)n(-c2ccccc2)c1=O | > 100 µM |  |
| Cc1ccc(C2=C(c3ccccc3)C(Br)(c3ccc(C)cc3)C(c3ccccc3)=C2c2ccc(C)cc2)cc1 | > 100 µM |  |
| N#CCN1C(=O)c2cccc3cc([N+](=O)[O-])cc(c23)C1=O | > 100 µM |  |
| O=C(O)C1OC(n2cc(F)c(=O)[nH]c2=O)CC1O (configuration not stated) | > 100 µM |  |
| CC(C)C(Nc1c2ccccc2nc2ccccc12)C(=O)O (configuration not stated) | > 100 µM |  |
| COc1ccccc1CCc1cc(OC)c(OC)c(OC)c1 | > 100 µM |  |
| COc1cc2c(cc1OC)C(CC(=O)NN=C(C)C)NCC2 (configuration not stated) | > 100 µM |  |
| COC(=O)/C(=N\Nc1nnc(C)n1N)C(C#N)c1ccc(Cl)cc1 (configuration not stated) | > 100 µM |  |

| SMILES | TGI | GI50 |
| --- | --- | --- |
| Cc1cccc(NC(=O)C(=O)C(C(=O)c2ccc3ccccc3c2)C2OC(=O)c3ccccc32)c1C (configuration not stated) | 28.9 µM |  |
| CS/C(N)=N\NC(=O)CCC(=O)Nc1ccccc1C(F)(F)F | > 100 µM |  |
| CC(=O)/C(C)=N/NC(=O)c1ccccc1O | > 10 µM |  |
| CC(C)(C)c1ccc2c(c1)S(=O)(=O)Nc1ccccc1NS(=O)(=O)c1cc(C(C)(C)C)ccc1OCCOCCOCCO2 | > 100 µM |  |
| CC(=O)[O-].CCN(CC)c1ccc(C=NCCN=Cc2ccc(N(CC)CC)cc2[O-])c([O-])c1.[Mn+3] | > 100 µM | 55.2 µM |
| NC(N)=N/N=C(\c1nc2ccc([N+](=O)[O-])cc2[nH]c1=O)C(O)c1ccc([N+](=O)[O-])cc1 (configuration not stated) | > 100 µM |  |
| CCC[CH2][Sn]1([CH2]CCC)[O]CC(CN2CCCC2)[O]1 (configuration not stated) | 32.7 µM | 16.1 µM |
| COc1cc2c(c(OC)c1OC)-c1ccc(OC)c(=O)cc1[C@@H](NC(=O)c1ccccc1)CC2 | > 100 µM |  |
| NCCCCN(CCCN)/[N+]([O-])=N\O | > 100 µM |  |
| COc1cccc2c1C(=O)c1c(O)c3c(c(O)c1C2=O)C[C@@](O)(C(C)=O)C[C@@H]3OC1OC(C)C(O)C(N)C1Br (some centres not stated) | 0.175 µM and 0.607 µM | 0.0679 µM |
| COC(=O)C1=C(C)N(NC(=O)OC(C)(C)C)C(=O)C1=P(c1ccccc1)(c1ccccc1)c1ccccc1 | > 100 µM |  |
| O=C1OC(c2ccccc2)=N/C1=C\c1cccc2ccccc12 | > 100 µM |  |
| Cc1cccc(NC(=O)/C(=N\NC(C)(C)C)C2NC(=S)NC2=O)c1C (configuration not stated) | > 100 µM |  |
| C[C@@H]1CC(=O)C2CCCC1C2=O (some centres not stated) | > 100 µM |  |
| c1ccc(CNn2nnc3ccccc32)cc1 | > 100 µM |  |

system: DU-145 prostate; assay: growth of human tumour cells (NCI), 48 h

| SMILES | TGI | GI50 |
| --- | --- | --- |
| O=C(O)C1OC(n2cc(F)c(=O)[nH]c2=O)CC1O (configuration not stated) | > 100 µM |  |
| CC(=O)/C(C)=N/NC(=O)c1ccccc1O | > 100 µM |  |
| COc1cc2c(c(OC)c1OC)-c1ccc(OC)c(=O)cc1[C@@H](NC(=O)c1ccccc1)CC2 | 0.0329 µM and 0.237 µM | < 0.003 µM |
| COc1cccc2c1C(=O)c1c(O)c3c(c(O)c1C2=O)C[C@@](O)(C(C)=O)C[C@@H]3OC1OC(C)C(O)C(N)C1Br (some centres not stated) | 2.67 µM |  |
| CN(C)C(=O)c1cc2cnc(Nc3ccc(-c4csc5c(=S)cc(N6CCOCC6)oc45)cc3)nc2n1C1CCCC1 | > 50 µM | 0.774 µM |
| COC1=CC(=O)c2nc(-c3cccc(C)n3)[nH]c2C1=O | 73.3 µM | 25.6 µM |

system: HOP-18 NSCLC; assay: growth of human tumour cells (NCI), 48 h

| SMILES | TGI | GI50 |
| --- | --- | --- |
| Cc1nc(N)sc1C(=O)/C=C\c1ccc2c(c1)OCO2 | > 100 µM |  |
| Cn1c(=O)c(C(c2ccc([N+](=O)[O-])cc2)c2c(O)c3ccccc3n(C)c2=O)cc2ccccc21 (configuration not stated) | > 100 µM |  |
| Cc1cn(C2CC(O)C(CO)O2)c(=O)n2nnnc12 (configuration not stated) | > 100 µM |  |
| COc1ccc(C(=O)C(C(=O)CCC(=O)Nc2cccc(Cl)c2)c2ccc(OC)cc2)cc1 (configuration not stated) | > 100 µM |  |
| CCOC(=O)C1=C(C)N(NC(=O)Nc2ccccc2)C(=O)C1=P(c1ccccc1)(c1ccccc1)c1ccccc1 | > 100 µM |  |
| COc1cc(C=C2C(=O)NC(=O)NC2=O)cc(OC)c1OC | > 100 µM |  |
| Cc1ccc(C2=C(c3ccccc3)C(Br)(c3ccc(C)cc3)C(c3ccccc3)=C2c2ccc(C)cc2)cc1 | > 100 µM |  |
| N#CCN1C(=O)c2cccc3cc([N+](=O)[O-])cc(c23)C1=O | > 100 µM |  |
| CC1CC[C@]2(C(=O)O)CCC3(C)C(=CC(=O)C4[C@@]5(C)CCC(=O)C(C)(C)C5CC[C@]43C)[C@@H]2[C@H]1C (some centres not stated) | 94.6 µM |  |
| O=C(O)C1OC(n2cc(F)c(=O)[nH]c2=O)CC1O (configuration not stated) | > 100 µM |  |
| COc1ccccc1CCc1cc(OC)c(OC)c(OC)c1 | > 100 µM |  |
| COc1cc2c(cc1OC)C(CC(=O)NN=C(C)C)NCC2 (configuration not stated) | > 100 µM |  |
| COC(=O)/C(=N\Nc1nnc(C)n1N)C(C#N)c1ccc(Cl)cc1 (configuration not stated) | > 100 µM |  |
| CS/C(N)=N\NC(=O)CCC(=O)Nc1ccccc1C(F)(F)F | > 100 µM |  |
| CC(=O)/C(C)=N/NC(=O)c1ccccc1O | > 10 µM |  |
| CC(C)(C)c1ccc2c(c1)S(=O)(=O)Nc1ccccc1NS(=O)(=O)c1cc(C(C)(C)C)ccc1OCCOCCOCCO2 | > 100 µM |  |
| CC(=O)[O-].CCN(CC)c1ccc(C=NCCN=Cc2ccc(N(CC)CC)cc2[O-])c([O-])c1.[Mn+3] | 35.5 µM | 18.7 µM |
| CC1(C)C(=O)N(CCCCCCN2C(=O)C(C)(C)c3ccccc32)c2ccccc21 | > 100 µM |  |
| COc1cc2c(c(OC)c1OC)-c1ccc(OC)c(=O)cc1[C@@H](NC(=O)c1ccccc1)CC2 | > 100 µM |  |
| NCCCCN(CCCN)/[N+]([O-])=N\O | > 100 µM |  |
| CCOc1ccccc1NC(=O)CC(C(=O)OC)C(=O)C(=O)OC (configuration not stated) | > 100 µM |  |
| COc1cccc2c1C(=O)c1c(O)c3c(c(O)c1C2=O)C[C@@](O)(C(C)=O)C[C@@H]3OC1OC(C)C(O)C(N)C1Br (some centres not stated) | 0.345 µM |  |
| COC(=O)C1=C(C)N(NC(=O)OC(C)(C)C)C(=O)C1=P(c1ccccc1)(c1ccccc1)c1ccccc1 | > 100 µM |  |
| O=C1OC(c2ccccc2)=N/C1=C\c1cccc2ccccc12 | > 100 µM |  |
| C[C@@H]1CC(=O)C2CCCC1C2=O (some centres not stated) | > 100 µM |  |

system: LXFL 529 NSCLC; assay: growth of human tumour cells (NCI), 48 h

| SMILES | TGI |
| --- | --- |
| Cc1nc(N)sc1C(=O)/C=C\c1ccc2c(c1)OCO2 | > 100 µM |
| COc1cc(C(C)O)c[n+](CCc2c[nH]c3ccccc23)c1 (configuration not stated) | > 100 µM |
| CC1(C)SCc2nc3ncccc3n21 | > 100 µM |
| Cn1c(=O)c(C(c2ccc([N+](=O)[O-])cc2)c2c(O)c3ccccc3n(C)c2=O)cc2ccccc21 (configuration not stated) | > 100 µM |
| Cc1cn(C2CC(O)C(CO)O2)c(=O)n2nnnc12 (configuration not stated) | > 100 µM |
| COc1ccc(C(=O)C(C(=O)CCC(=O)Nc2cccc(Cl)c2)c2ccc(OC)cc2)cc1 (configuration not stated) | > 100 µM |
| CCOC(=O)C1=C(C)N(NC(=O)Nc2ccccc2)C(=O)C1=P(c1ccccc1)(c1ccccc1)c1ccccc1 | > 100 µM |
| COc1cc(C=C2C(=O)NC(=O)NC2=O)cc(OC)c1OC | > 100 µM |
| Nn1c(=O)n(Cc2ccccc2)n(-c2ccccc2)c1=O | > 100 µM |
| Cc1ccc(C2=C(c3ccccc3)C(Br)(c3ccc(C)cc3)C(c3ccccc3)=C2c2ccc(C)cc2)cc1 | > 100 µM |
| N#CCN1C(=O)c2cccc3cc([N+](=O)[O-])cc(c23)C1=O | > 100 µM |
| O=C1CCN2C(=O)CCN12 | > 100 µM |
| CC1CC[C@]2(C(=O)O)CCC3(C)C(=CC(=O)C4[C@@]5(C)CCC(=O)C(C)(C)C5CC[C@]43C)[C@@H]2[C@H]1C (some centres not stated) | > 100 µM |
| O=C(O)C1OC(n2cc(F)c(=O)[nH]c2=O)CC1O (configuration not stated) | > 100 µM |
| CC(C)C(Nc1c2ccccc2nc2ccccc12)C(=O)O (configuration not stated) | > 100 µM |
| COc1ccccc1CCc1cc(OC)c(OC)c(OC)c1 | > 100 µM |
| COc1cc2c(cc1OC)C(CC(=O)NN=C(C)C)NCC2 (configuration not stated) | > 100 µM |
| COC(=O)/C(=N\Nc1nnc(C)n1N)C(C#N)c1ccc(Cl)cc1 (configuration not stated) | > 100 µM |
